Assay results taken from publication PMC5642477, “Phosphodiesterase 10A is overexpressed in lung tumor cells and inhibitors selectively suppress growth by blocking β-catenin and MAPK signaling” (Oncotarget, 2017).
Each block holds one compound with its values, some of them ahead of it.

Key:
β-catenin in H1299 cells = assay: Western blotting, β-catenin phosphorylation; assay type: cell-based, human; details: H1299, PQ10 2 µmol/L, 1 hour; KT5823 0.1 µmol/L, H89 1 µmol/L
Experimental: (§1) Whole cell extraction was performed according to a previously described method using cell lysing buffer (Cell Signaling) supplemented with 10 mmol/L NaF for protein phosphorylation studies. Cell lysates were separated by 4-12% gradient, 7% or 10% pre-casting PAGE (Novex/Invitrogen) followed by electrophoretic transfer to a nitrocellulose membrane. Western blotting procedures were performed using Chemiluminescence Reagent (Pierce) and visualized using Chemi Doc Imaging System (BioRad).

[1] = system: cleaved PARP and caspase 3 in H1299 cells; assay: Western blotting, cleaved PARP and caspase 3 (apoptosis); assay type: cell-based, human; details: H1299, 24 hours of treatment
Experimental: as §1

[2] = system: intracellular cGMP levels in H1299 cells; assay: cGMP biosensor assay (luciferase); assay type: cell-based, human; details: H1299, CNP 100 nmol/L; sildenafil 1 µmol/L, IBMX 100 µmol/L
Experimental: Stable cell lines with an expression of luciferase-based cGMP biosensor were established from H1299 NSCLC cells and HEK293 cells using a genetically encoded GAF-Luc construct (Promega), containing a cGMP-specific binding domain from human PDE5A GAF-A domain fused to modified firefly luciferase (35). Cells were pre-incubated at room temperature in CO2 independent media supplemented with 10% FBS and 5 mmol/L luciferin. For the measurement of intracellular cGMP levels, sodium nitroprusside (SNP) or C-type natriuretic peptide (CNP) in combination with PDE inhibitors were added to initiate the experiment and the increased luminescence values in live cells were detected constantly over a period time of 2 hours.

A549 cells = assay: Growth assay (Cell Titer Glo); assay type: cell-based; details: Homo sapiens; A549, 72 hours, 5% serum; read-out: Growth inhibition IC50
Experimental: (§2) Cells were plated in half area 96-well microtiter plates (Corning) at a density of 3, 000 cells per well. For drug treatment, cells were treated with compound or DMSO as vehicle (final concentration at 0.2%). For siRNA assays, cells were transfected with siRNAs under the same condition as described above. The effect of treatment on cell growth was measured using the Cell Titer Glo (CTG) assay (Promega) as specified by the measurement of viable cells based on ATP content after 72 hours standard culture. All growth assay involving NSCLCs and NHAECs were performed in the presence of 5% serum.
(§3) Drug effects on cell growth and IC50 values were determined as described previously. All experiments were repeated a minimum of three times to determine the reproducibility of the results. All error bars represent standard error of the mean (SEM). Statistical analysis was performed using Student’s t test or other as indicated. A P value of <0.05 was considered statistically significant.

H460 cells = assay: Growth assay (Cell Titer Glo); assay type: cell-based; details: Homo sapiens, NCI-H460; H460, 72 hours, 5% serum; read-out: Growth inhibition IC50
Experimental: as §2, §3

EKVX cells = assay: Growth assay (Cell Titer Glo); assay type: cell-based; details: Homo sapiens, 72 hours, read-out: Growth inhibition IC50
Experimental: as §2, §3

H226 cells = assay: Growth assay (Cell Titer Glo); assay type: cell-based; details: Homo sapiens, NCI-H226; H226, 72 hours; read-out: Growth inhibition IC50
Experimental: as §2, §3

H23 cells = assay: Growth assay (Cell Titer Glo); assay type: cell-based; details: Homo sapiens, NCI-H23; H23, 72 hours; read-out: Growth inhibition IC50
Experimental: as §2, §3

H322M cells = assay: Growth assay (Cell Titer Glo); assay type: cell-based; details: Homo sapiens, NCI-H322M, 72 hours, read-out: Growth inhibition IC50
Experimental: as §2, §3

H522 cells = assay: Growth assay (Cell Titer Glo); assay type: cell-based; details: Homo sapiens, NCI-H522; H522, 72 hours; read-out: Growth inhibition IC50
Experimental: as §2, §3

HOP-92 cells = assay: Growth assay (Cell Titer Glo); assay type: cell-based; details: Homo sapiens; HOP-92, 72 hours; read-out: Growth inhibition IC50
Experimental: as §2, §3

HOP62 cells = assay: Growth assay (Cell Titer Glo); assay type: cell-based, human; details: Homo sapiens, HOP-62; HOP62, 72 hours, 5% serum; read-out: Growth inhibition IC50
Experimental: as §2, §3

SMILES: O=S(=O)(NCCNC/C=C/c1ccc(Br)cc1)c1cccc2cnccc12 [H89]
effect on PQ10-induced phosphorylation of β-catenin at pSer552 (β-catenin in H1299 cells): partial inhibition | effect on PQ10-induced activation of PARP and caspase 3 [1]: ineffective

SMILES: CC(C)Cn1c(=O)n(C)c(=O)c2[nH]cnc21 [IBMX]
effect on luminescence values in biosensor assay [2]: increased luminescence levels

SMILES: COc1ccc(Cc2nccc3cc(OC)c(OC)cc23)cc1OC [Papaverine]
IC50 (A549 cells): 17.2 µM | IC50 (H460 cells): 16.3 µM

IC50 (A549 cells): 15.8 µM | IC50 (H226 cells): 21.1 µM | IC50 (H322M cells): 20 µM | IC50 (H460 cells): 15.2 µM | IC50 (H522 cells): 25.8 µM
SMILES: Cn1cc(-c2ccncc2)c(-c2ccc(OCc3ccc4ccccc4n3)cc2)n1 [Pf-2545920]
IC50 (EKVX cells): 18.6 µM | IC50 (H23 cells): 18.1 µM | IC50 (HOP-92 cells): 21.4 µM | IC50 (HOP62 cells): 22.9 µM
